Among the test systems are ACHN; BT-549; DU-145; HCC 2998; HCT-15; HOP-92; K562; M14; MDA-MB-231; NCI-H23; NCI-H460; OVCAR-3; PC-3; RPMI-8226; RXF 393; SF-539; SK-MEL-5; TK-10; A498; Hs-578T.
What all share (test): NCI tumour cell line growth inhibition, 48 h

The results in this text go back to ChEMBL document CHEMBL1201862, “PubChem BioAssay data set” (2004).

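Dose response: 5 concentrations. Exposure: 48 h. Format: 96-well plates. Endpoint: linear interpolation; highest concentration if not reached. Here, GI50 denotes the concentration required for 50% inhibition of growth.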 Active and inactive are the calls of the source. Rule as the data show it: active = GI50 up to about 1.1 µM and inactive = higher.

As to `O=C(c1ccccc1)n1c2ccc(Br)cc2c2nc3ccccc3nc21`, the GI50 with ACHN was 57.1 µM (inactive); in the experiment with BT-549 it was > 100 µM (inactive); in the experiment on DU-145 it was > 100 µM (inactive); with HCC 2998, > 100 µM (inactive); with HCT-15, more than 100 µM; in the experiment with HOP-92, > 100 µM (inactive). The GI50 in the experiment with K562 is 72.8 µM (inactive); with M14, > 100 µM (inactive); in the experiment on MDA-MB-231, > 100 µM (inactive); with NCI-H23, > 100 µM (inactive); in the experiment on NCI-H460 it was 71 µM (inactive); in the experiment with OVCAR-3, 34.9 µM (inactive). Also, the GI50 in the experiment with PC-3 was 43.2 µM (inactive); with RPMI-8226, 27.7 µM (inactive); in the experiment with RXF 393, > 100 µM (inactive); with SF-539, > 100 µM (inactive); with SK-MEL-5 it was > 100 µM (inactive); with TK-10, > 100 µM (inactive).

With `O=c1[nH]nc(Cc2ccccc2)n1C1CC1`, the GI50 in the experiment on A498 was > 100 µM (inactive); with ACHN, > 100 µM (inactive); in the experiment on DU-145, > 100 µM (inactive); in the experiment with HCC 2998, > 100 µM (inactive); in the experiment on HCT-15, more than 100 µM; in the experiment with HOP-92, > 100 µM (inactive). The GI50 in the experiment with Hs-578T, in the experiment on K562, with M14, in the experiment on MDA-MB-231, with NCI-H23 and with NCI-H460 was > 100 µM (inactive) throughout. Further, the GI50 with OVCAR-3, in the experiment on PC-3, in the experiment with RPMI-8226, in the experiment on RXF 393, in the experiment on SF-539 and in the experiment on SK-MEL-5 was > 100 µM (inactive) each time. Also, the GI50 with TK-10 is > 100 µM (inactive).

Turning to `CCOC(=O)c1[nH]c2cccc3c2c1CC(Br)C3=O` (stereo unspecified), the GI50 is 17.7 µM (inactive) in the experiment on A498; 6.98 µM (inactive) in the experiment with ACHN; 16.9 µM (inactive) in the experiment on BT-549; 16.1 µM (inactive) in the experiment on DU-145; 14.7 µM (inactive) in the experiment on HCC 2998; 3.72 µM in the experiment with HCT-15. In addition, the GI50 was 16.7 µM (inactive) in the experiment on HOP-92; 13.4 µM (inactive) in the experiment on M14; 18.5 µM (inactive) in the experiment on MDA-MB-231; 17.6 µM (inactive) with NCI-H23; 22.3 µM (inactive) in the experiment with NCI-H460; 13.2 µM (inactive) in the experiment with OVCAR-3. Further, the GI50 was 15.1 µM (inactive) in the experiment on PC-3; 5.02 µM (inactive) in the experiment on RPMI-8226; 16.4 µM (inactive) in the experiment with SF-539; 18.5 µM (inactive) in the experiment with SK-MEL-5; 14.6 µM (inactive) with TK-10.

On to `O=C1O/C(=C(/Cl)c2c3ccccc3cc3ccccc23)c2ccccc21`, for which the GI50 in the experiment on A498 is 27 µM (inactive); with ACHN, 24.5 µM (inactive); in the experiment on DU-145, 45.4 µM (inactive); with HCC 2998, 30.9 µM (inactive); with HCT-15, 20.6 µM; in the experiment with HOP-92, 21.8 µM (inactive). The GI50 was 23 µM (inactive) in the experiment on Hs-578T; 13.8 µM (inactive) in the experiment on K562; 21.4 µM (inactive) in the experiment on M14; 19.9 µM (inactive) with MDA-MB-231; 26.1 µM (inactive) in the experiment with NCI-H23; 26.5 µM (inactive) in the experiment with NCI-H460. For the same compound, the GI50 in the experiment with OVCAR-3 is 20.1 µM (inactive); in the experiment on PC-3, 24.8 µM (inactive); in the experiment on RPMI-8226 it was 20.3 µM (inactive); with RXF 393 it was 33.3 µM (inactive); in the experiment on SF-539, 23.6 µM (inactive); with SK-MEL-5 it was 15.4 µM (inactive). Further, the GI50 in the experiment on TK-10 is 32.8 µM (inactive).

With `O=c1c2c(c1=O)C1(SCCCS1)c1cc(Cl)ccc1O2`, the GI50 in the experiment with A498 was > 100 µM (inactive); in the experiment on ACHN, > 100 µM (inactive); in the experiment on BT-549, > 100 µM (inactive); with DU-145, > 100 µM (inactive); in the experiment on HCC 2998 it was > 100 µM (inactive); in the experiment with HCT-15, more than 100 µM. In addition, the GI50 with HOP-92, in the experiment with K562, with M14, in the experiment on MDA-MB-231, in the experiment with NCI-H23 and in the experiment on NCI-H460 was > 100 µM (inactive) each time. The GI50 in the experiment on OVCAR-3, in the experiment with PC-3, in the experiment on RPMI-8226, in the experiment with RXF 393, with SF-539 and with SK-MEL-5 was > 100 µM (inactive) throughout. Further, the GI50 in the experiment on TK-10 is > 100 µM (inactive).

In the case of `CON(C)C(=O)C(C)NC(=O)OC(C)(C)C` (stereo unspecified), the GI50 in the experiment with A498 is > 100 µM (inactive); in the experiment with ACHN, > 100 µM (inactive); with BT-549 it was > 100 µM (inactive); in the experiment on DU-145, > 100 µM (inactive); with HCC 2998, > 100 µM (inactive); in the experiment with HCT-15, more than 100 µM. The GI50 in the experiment with HOP-92, in the experiment with Hs-578T, in the experiment on K562, in the experiment on M14, in the experiment on NCI-H23 and in the experiment on NCI-H460 was > 100 µM (inactive) in each case. Besides, the GI50 with OVCAR-3, in the experiment on PC-3, in the experiment with RPMI-8226, with RXF 393, in the experiment with SF-539 and with SK-MEL-5 was > 100 µM (inactive) in each case. In addition, the GI50 in the experiment with TK-10 is > 100 µM (inactive).

`Cc1csc2nc3[nH]ncc3c(=O)n12`: the GI50 in the experiment with ACHN is > 100 µM (inactive); in the experiment with BT-549, > 100 µM (inactive); in the experiment on HCC 2998, > 100 µM (inactive); in the experiment on HCT-15 it was more than 100 µM; with Hs-578T, 28.4 µM (inactive); in the experiment on K562, > 100 µM (inactive). In addition, the GI50 in the experiment on M14, with MDA-MB-231, with NCI-H23, with NCI-H460, in the experiment with OVCAR-3 and in the experiment with PC-3 was > 100 µM (inactive) each time. Moreover, the GI50 in the experiment with RPMI-8226, in the experiment on SF-539 and in the experiment on SK-MEL-5 was > 100 µM (inactive) each time.

In the case of `CC(=O)[C@]1(C)[C@H](C)O[C@](C)(CO)[C@H]1O[Si](C)(C)c1ccccc1`, the GI50 was > 100 µM (inactive) in the experiment on A498; 46.7 µM (inactive) with ACHN; 57.1 µM (inactive) with DU-145; 31.5 µM (inactive) in the experiment with HCC 2998; 23 µM in the experiment with HCT-15; 11.2 µM (inactive) in the experiment on HOP-92. For the same compound, the GI50 in the experiment with Hs-578T is 45 µM (inactive); in the experiment with K562, 32.8 µM (inactive); with M14, 83 µM (inactive); with MDA-MB-231, 45.5 µM (inactive); in the experiment on NCI-H23 it was 20.5 µM (inactive); in the experiment with NCI-H460 it was 51.2 µM (inactive). The GI50 in the experiment with OVCAR-3 was 55 µM (inactive); with PC-3, 45.5 µM (inactive); with RPMI-8226 it was 35.2 µM (inactive); in the experiment on RXF 393, 14.1 µM (inactive); in the experiment on SF-539, > 100 µM (inactive); in the experiment with SK-MEL-5 it was 33.9 µM (inactive). Also, the GI50 in the experiment with TK-10 is 82.4 µM (inactive).

Take `O=C(n1[nH]c(=O)n(-c2ccc([N+](=O)[O-])cc2)c1=O)C(Cl)(Cl)Cl`: the GI50 in the experiment on ACHN was > 75 µM (inactive); with BT-549 it was > 75 µM (inactive); with DU-145, > 75 µM (inactive); in the experiment with HCC 2998, > 75 µM (inactive); in the experiment on HCT-15, more than 75 µM; with Hs-578T it was > 75 µM (inactive). For the same compound, the GI50 with K562, in the experiment on M14, in the experiment on MDA-MB-231, in the experiment on NCI-H23, in the experiment with NCI-H460 and in the experiment with OVCAR-3 was > 75 µM (inactive) throughout. Besides, the GI50 in the experiment on PC-3, with RPMI-8226, in the experiment with RXF 393, in the experiment on SK-MEL-5 and with TK-10 was > 75 µM (inactive) in each case.

As for `O[C@@]12Cc3c([nH]c4ccccc34)[C@@H]3Oc4c(-c5ccccc5)ccc5c4[C@@]31CCN(CC1CC1)[C@@H]2C5`, the GI50 is 1.47 µM (inactive) with A498; 1.44 µM (inactive) with ACHN; 10.8 µM (inactive) with BT-549; 1.57 µM (inactive) with HCC 2998; 1.95 µM in the experiment on HCT-15; 5.19 µM (inactive) in the experiment with HOP-92. The GI50 in the experiment on Hs-578T is 1.85 µM (inactive); with K562, 2.33 µM (inactive); with M14, 1.82 µM (inactive); with NCI-H23, 1.78 µM (inactive); in the experiment on NCI-H460, 1.72 µM (inactive); with OVCAR-3, 1.49 µM (inactive). For the same compound, the figures for the GI50 with PC-3, with RPMI-8226 and with SK-MEL-5 were 1.84 µM (inactive), 3.65 µM (inactive) and 1.83 µM (inactive), respectively.

For the compound `COc1ccc(-c2ccc(C(=O)C=P(c3ccccc3)(c3ccccc3)c3ccccc3)cc2)cc1`, the GI50 is 12.2 µM (inactive) in the experiment on A498; 13.3 µM (inactive) with ACHN; 14.5 µM (inactive) with DU-145; 1.79 µM (inactive) in the experiment with HCC 2998; 8.59 µM in the experiment on HCT-15; 4.72 µM (inactive) in the experiment on HOP-92. In addition, the GI50 was 23 µM (inactive) with Hs-578T; 5 µM (inactive) with K562; 11.6 µM (inactive) with M14; 15.9 µM (inactive) in the experiment with MDA-MB-231; 18.8 µM (inactive) in the experiment on NCI-H23; 8.13 µM (inactive) in the experiment on NCI-H460. The GI50 in the experiment with OVCAR-3 is 3.41 µM (inactive); in the experiment on PC-3, 7.55 µM (inactive); with RPMI-8226, 2.12 µM (inactive); in the experiment with RXF 393 it was 13.2 µM (inactive); in the experiment with SF-539, 17.7 µM (inactive); in the experiment on SK-MEL-5, 9.64 µM (inactive). Besides, the GI50 in the experiment on TK-10 was 10.8 µM (inactive).
